Results on 1 compound are retold here after ChEMBL document CHEMBL5518218, “Discovery of Novel PD-L1 Small-Molecular Inhibitors with Potent In Vivo Anti-tumor Immune Activity” (J Med Chem, 2024).

Calls of active or inactive are those of the source. The rule behind the calls is not given here.

Data set [1] is described as follows: Prodrug conversion in Sprague-Dawley rat assessed as half life of (2-(benzo[c][1,2,5]oxadiazol-5-ylmethoxy)-5-chloro-4-((2-fluoro-3'-(3-(4-hydroxypiperidin-1-yl)propoxy)-[1,1'-biphenyl]-3-yl)methoxy)benzyl)-D-serine at 9 mg/kg, iv measured upto 24 hrs by LC-MS/MS analysis. Conditions: in vivo. The class given is ADME, organism-based.
A short description of data set [2]: Prodrug conversion in Sprague-Dawley rat assessed as Tmax of (2-(benzo[c][1,2,5]oxadiazol-5-ylmethoxy)-5-chloro-4-((2-fluoro-3'-(3-(4-hydroxypiperidin-1-yl)propoxy)-[1,1'-biphenyl]-3-yl)methoxy)benzyl)-D-serine at 9 mg/kg, iv measured upto 24 hrs by LC-MS/MS analysis. Conditions: in vivo. The class given is ADME, organism-based.
A short description of data set [3]: Prodrug conversion in Sprague-Dawley rat assessed as Cmax of (2-(benzo[c][1,2,5]oxadiazol-5-ylmethoxy)-5-chloro-4-((2-fluoro-3'-(3-(4-hydroxypiperidin-1-yl)propoxy)-[1,1'-biphenyl]-3-yl)methoxy)benzyl)-D-serine at 9 mg/kg, iv measured upto 24 hrs by LC-MS/MS analysis. It is filed as ADME, organism-based. Conditions: in vivo.
The nature of data set [4]: Prodrug conversion in Sprague-Dawley rat assessed as Tmax of (2-(benzo[c][1,2,5]oxadiazol-5-ylmethoxy)-5-chloro-4-((2-fluoro-3'-(3-(4-hydroxypiperidin-1-yl)propoxy)-[1,1'-biphenyl]-3-yl)methoxy)benzyl)-D-serine at 45 mg/kg, po measured upto 24 hrs by LC-MS/MS analysis. The class given is ADME, organism-based. Conditions: in vivo.
Data set [5] can be described thus: Prodrug conversion in Sprague-Dawley rat assessed as Cmax of (2-(benzo[c][1,2,5]oxadiazol-5-ylmethoxy)-5-chloro-4-((2-fluoro-3'-(3-(4-hydroxypiperidin-1-yl)propoxy)-[1,1'-biphenyl]-3-yl)methoxy)benzyl)-D-serine at 45 mg/kg, po measured upto 24 hrs by LC-MS/MS analysis. Conditions: in vivo. It is filed as ADME, organism-based.
The nature of data set [6]: Prodrug conversion in C57BL/6 mouse assessed as Cmax of (2-(benzo[c][1,2,5]oxadiazol-5-ylmethoxy)-5-chloro-4-((2-fluoro-3'-(3-(4-hydroxypiperidin-1-yl)propoxy)-[1,1'-biphenyl]-3-yl)methoxy)benzyl)-D-serine at 10 mg/kg, po measured upto 24 hrs by LC-MS/MS analysis. It is filed as ADME, organism-based. Conditions: in vivo.
The nature of data set [7]: Water solubility of the compound. The class given is physicochemical.
Data set [8] is described as follows: Acute toxicity in mouse assessed as signs of distress at 1000 mg/kg, po administered as single dose for 14 days. It is filed as organism-based. Conditions: in vivo, 336 h, time 14 day.
Data set [9] deals with CT26. In words: Antitumor activity against mouse CT26 cells implanted in BALB/c mouse assessed as increase in percentage of CD8+ cells at 25 mg/kg, ip measured for 20 days. The class given is functional. Conditions: time 20 day.
The subject of data set [10] is CT26. The experiment in a line: Antitumor activity against mouse CT26 cells implanted in BALB/c mouse assessed as reduction in Treg lymphocyte at 25 mg/kg, ip measured for 20 days. It is filed as functional, organism-based. Conditions: time 20.0 day.

As to `CCOC(=O)[C@@H](CO)NCc1cc(Cl)c(OCc2cccc(-c3cccc(OCCCN4CCC(O)CC4)c3)c2F)cc1OCc1ccc2nonc2c1.Cl.Cl`, in data set [1], the t1/2 came to 7.9 h. The Tmax in data set [2] is 4.8 min; in [4], 4 h. In addition, the values for the Cmax in data set [3], in data set [5] and in data set [6] were 3760.7 ng/mL, 49.8 ng/mL and 255.7 ng/mL, respectively. In addition, the solubility in data set [7] was determined as 9.52 µM. In addition, the Activity entry was “Non-Toxic” in [8] and 7.2% in data set [9]. For the same compound, the outcome in data set [10] was Active.
